This passage reports inhibition results from the kinase profiling compilation of Christmann-Franck et al. (2016).

The target of the first assay is PRKAA2 (human) (UniProt P54646). The following applies: compound 10.0 µM.
Sequence of PRKAA2 (human) (P54646 whole entry, looked up): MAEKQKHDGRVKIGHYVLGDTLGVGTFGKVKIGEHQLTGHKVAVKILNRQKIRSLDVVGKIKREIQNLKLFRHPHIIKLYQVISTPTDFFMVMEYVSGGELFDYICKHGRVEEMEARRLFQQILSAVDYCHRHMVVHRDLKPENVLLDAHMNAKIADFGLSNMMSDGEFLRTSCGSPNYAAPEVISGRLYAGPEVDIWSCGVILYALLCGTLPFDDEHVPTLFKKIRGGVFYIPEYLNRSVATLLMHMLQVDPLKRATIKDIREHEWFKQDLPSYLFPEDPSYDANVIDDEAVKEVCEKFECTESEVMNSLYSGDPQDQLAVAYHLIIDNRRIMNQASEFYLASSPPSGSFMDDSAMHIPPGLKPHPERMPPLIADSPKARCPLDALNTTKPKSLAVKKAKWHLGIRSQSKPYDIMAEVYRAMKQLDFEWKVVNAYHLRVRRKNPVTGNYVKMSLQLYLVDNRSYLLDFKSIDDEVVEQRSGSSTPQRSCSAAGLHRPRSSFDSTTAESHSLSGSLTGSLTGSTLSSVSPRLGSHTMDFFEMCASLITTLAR
Broadly, the inhibition is the percentage by which the read-out fell short of the control. Read a high inhibition as a strong effect. The compound `O=C1NC(=O)c2c1c1c3ccccc3n3c1c1c2c2ccccc2n1C1CCC3O1` registered an inhibition of 70%.

`COc1cc2ncnc(Nc3ccc(F)c(Cl)c3)c2cc1OCCCN1CCOCC1`: the inhibition stood at 0%.

For the compound `c1ccc(-c2n[nH]cc2-c2ccnc3ccccc23)nc1`, the inhibition turned out to be 0%.

For `Fc1ccc(Cl)cc1-c1nc(Nc2ccncc2)c2nccnc2n1`, the inhibition stood at 32%.

For the compound `Cc1cc(I)ccc1Nc1c(C(=O)NOCC2CC2)cc(F)c(F)c1F`, the inhibition turned out to be 0%.

`Oc1ccc(-c2nc(-c3ccc(F)cc3)c(-c3ccncc3)[nH]2)cc1` gave an inhibition of 0%.

Turning to `COc1nccc(-c2c(-c3ccc(F)cc3)ncn2[C@H]2CC[C@H](O)CC2)n1`, the inhibition worked out at 0%.

For `NC1N[N](=Cc2coc3ccccc3c2=O)->[Cu]([Cl])([Cl])[SH]=1`, the inhibition came out at 4%.

As to `CC(C)[C@H](CO)Nc1nc(Nc2cccc(Cl)c2)c2ncn(C(C)C)c2n1`, the inhibition came to 0%.

Compound `CN(C)c1ccc(/C=C2\C(=O)Nc3ccccc32)cc1` displayed an inhibition of 0%.

`O=C1NC(=O)c2c1c1c3ccccc3[nH]c1c1[nH]c3ccccc3c21` gave an inhibition of 69%.

Regarding `COc1cc2ncn(-c3cc(OCc4ccccc4C(F)(F)F)c(C(N)=O)s3)c2cc1OC`, the inhibition was found to be 7%.

The compound `Cc1ccc(NC(=O)c2cccc(N(C)C)c2)cc1NC(=O)c1ccc(O)cc1` displayed an inhibition of 0%.

`COc1cc2ncnc(Nc3ccc(Cl)cc3F)c2cc1OC` registered an inhibition of 8%.

The compound `O=C1NC(=O)c2cc(Nc3ccc(F)cc3)c(Nc3ccc(F)cc3)cc21` registered an inhibition of 0%.

Regarding `N#C/C(=C\c1ccc(O)c(O)c1)C(N)=S`, the inhibition was determined as 0%.

Consider `CC(C)(C)n1nc(-c2cccc3ccccc23)c2c(N)ncnc21`, for which the inhibition amounted to 1%.

Compound `C/C(O)=C(\C#N)C(=O)Nc1cc(Br)ccc1Br` gave an inhibition of 0%.

Turning to `COc1cc2c(Nc3ccc(NC(=O)c4ccccc4)cc3)ncnc2cc1OCCCN1CCOCC1`, the inhibition is 0%.

The compound `Cc1cc(C)c(/C=C2\C(=O)Nc3ccccc32)[nH]1` yielded an inhibition of 45%.

The compound `N#CC(=C(\N)Sc1ccccc1N)/C(C#N)=C(/N)Sc1ccccc1N` returned an inhibition of 0%.

In turn, `CC[C@@H](CO)Nc1nc(NCc2ccccc2)c2ncn(C(C)C)c2n1` yielded an inhibition of 12%.

As to `Nc1ncnc2[nH]nc(Nc3ccc(F)cc3)c12`, the inhibition was 0%.

For `CC1=C(O)C(=O)[C@@H]2OC2C1=O` (some centres not stated), the inhibition is 0%.

The target in the next assay is AKT1 (human) (UniProt P31749). The following applies: compound 10.0 µM.
Sequence of AKT1 (human) (P31749 whole entry, looked up): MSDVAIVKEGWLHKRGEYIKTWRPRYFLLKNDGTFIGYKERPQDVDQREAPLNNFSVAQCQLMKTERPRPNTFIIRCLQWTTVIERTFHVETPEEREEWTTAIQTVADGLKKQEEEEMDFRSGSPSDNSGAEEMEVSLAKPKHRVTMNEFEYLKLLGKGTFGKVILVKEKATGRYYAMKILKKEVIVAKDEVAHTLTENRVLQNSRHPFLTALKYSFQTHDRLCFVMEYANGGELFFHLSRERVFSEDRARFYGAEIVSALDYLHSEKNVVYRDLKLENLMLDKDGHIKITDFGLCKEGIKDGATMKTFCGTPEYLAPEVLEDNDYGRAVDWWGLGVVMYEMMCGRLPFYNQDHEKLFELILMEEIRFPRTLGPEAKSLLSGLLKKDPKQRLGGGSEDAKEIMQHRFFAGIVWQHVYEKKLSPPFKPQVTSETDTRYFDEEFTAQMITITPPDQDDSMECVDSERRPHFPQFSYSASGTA
The compound `O=C1NC(=O)c2c1c1c3ccccc3n3c1c1c2c2ccccc2n1C1CCC3O1` showed an inhibition of 78%.

With `COc1cc2ncnc(Nc3ccc(F)c(Cl)c3)c2cc1OCCCN1CCOCC1`, the inhibition turned out to be 0%.

In the case of `c1ccc(-c2n[nH]cc2-c2ccnc3ccccc23)nc1`, the inhibition came to 0%.

`Fc1ccc(Cl)cc1-c1nc(Nc2ccncc2)c2nccnc2n1` gave an inhibition of 39%.

In turn, `Cc1cc(I)ccc1Nc1c(C(=O)NOCC2CC2)cc(F)c(F)c1F` yielded an inhibition of 0%.

Compound `Oc1ccc(-c2nc(-c3ccc(F)cc3)c(-c3ccncc3)[nH]2)cc1` came in with an inhibition of 5%.

For the compound `COc1nccc(-c2c(-c3ccc(F)cc3)ncn2[C@H]2CC[C@H](O)CC2)n1`, the inhibition worked out at 0%.

With `NC1N[N](=Cc2coc3ccccc3c2=O)->[Cu]([Cl])([Cl])[SH]=1`, the inhibition came out at 27%.

With `CC(C)[C@H](CO)Nc1nc(Nc2cccc(Cl)c2)c2ncn(C(C)C)c2n1`, the inhibition stood at 0%.

As for `CN(C)c1ccc(/C=C2\C(=O)Nc3ccccc32)cc1`, the inhibition stood at 0%.

In turn, `O=C1NC(=O)c2c1c1c3ccccc3[nH]c1c1[nH]c3ccccc3c21` yielded an inhibition of 22%.

With `COc1cc2ncn(-c3cc(OCc4ccccc4C(F)(F)F)c(C(N)=O)s3)c2cc1OC`, the inhibition is 12%.

`Cc1ccc(NC(=O)c2cccc(N(C)C)c2)cc1NC(=O)c1ccc(O)cc1` gave an inhibition of 0%.

With `COc1cc2ncnc(Nc3ccc(Cl)cc3F)c2cc1OC`, the inhibition is 0%.

For the compound `O=C1NC(=O)c2cc(Nc3ccc(F)cc3)c(Nc3ccc(F)cc3)cc21`, the inhibition was 15%.

The compound `N#C/C(=C\c1ccc(O)c(O)c1)C(N)=S` gave an inhibition of 0%.

With `CC(C)(C)n1nc(-c2cccc3ccccc23)c2c(N)ncnc21`, the inhibition stood at 18%.

With `C/C(O)=C(\C#N)C(=O)Nc1cc(Br)ccc1Br`, the inhibition stood at 0%.

The compound `COc1cc2c(Nc3ccc(NC(=O)c4ccccc4)cc3)ncnc2cc1OCCCN1CCOCC1` registered an inhibition of 9%.

As for `Cc1cc(C)c(/C=C2\C(=O)Nc3ccccc32)[nH]1`, the inhibition amounted to 0%.

As to `N#CC(=C(\N)Sc1ccccc1N)/C(C#N)=C(/N)Sc1ccccc1N`, the inhibition was 0%.

`CC[C@@H](CO)Nc1nc(NCc2ccccc2)c2ncn(C(C)C)c2n1` yielded an inhibition of 0%.

With `Nc1ncnc2[nH]nc(Nc3ccc(F)cc3)c12`, the inhibition stood at 3%.

`CC1=C(O)C(=O)[C@@H]2OC2C1=O` (some centres not stated) displayed an inhibition of 0%.

Another assay relates to PRKACA (mouse). To be noted: compound 10.0 µM; accession and sequence are those of the human protein.
`O=C1NC(=O)c2c1c1c3ccccc3n3c1c1c2c2ccccc2n1C1CCC3O1` returned an inhibition of 65%.

Compound `COc1cc2ncnc(Nc3ccc(F)c(Cl)c3)c2cc1OCCCN1CCOCC1` showed an inhibition of 1%.

Compound `c1ccc(-c2n[nH]cc2-c2ccnc3ccccc23)nc1` displayed an inhibition of 1%.

As for `Fc1ccc(Cl)cc1-c1nc(Nc2ccncc2)c2nccnc2n1`, the inhibition worked out at 21%.

Compound `Cc1cc(I)ccc1Nc1c(C(=O)NOCC2CC2)cc(F)c(F)c1F` showed an inhibition of 0%.

In turn, `Oc1ccc(-c2nc(-c3ccc(F)cc3)c(-c3ccncc3)[nH]2)cc1` showed an inhibition of 11%.

On to `COc1nccc(-c2c(-c3ccc(F)cc3)ncn2[C@H]2CC[C@H](O)CC2)n1`, for which the inhibition came to 0%.

Regarding `NC1N[N](=Cc2coc3ccccc3c2=O)->[Cu]([Cl])([Cl])[SH]=1`, the inhibition amounted to 7%.

`CC(C)[C@H](CO)Nc1nc(Nc2cccc(Cl)c2)c2ncn(C(C)C)c2n1` came in with an inhibition of 7%.

Compound `CN(C)c1ccc(/C=C2\C(=O)Nc3ccccc32)cc1` returned an inhibition of 1%.

Compound `O=C1NC(=O)c2c1c1c3ccccc3[nH]c1c1[nH]c3ccccc3c21` showed an inhibition of 27%.

For the compound `COc1cc2ncn(-c3cc(OCc4ccccc4C(F)(F)F)c(C(N)=O)s3)c2cc1OC`, the inhibition was determined as 14%.

Take `Cc1ccc(NC(=O)c2cccc(N(C)C)c2)cc1NC(=O)c1ccc(O)cc1`: the inhibition amounted to 7%.

In turn, `COc1cc2ncnc(Nc3ccc(Cl)cc3F)c2cc1OC` came in with an inhibition of 2%.

With `O=C1NC(=O)c2cc(Nc3ccc(F)cc3)c(Nc3ccc(F)cc3)cc21`, the inhibition stood at 13%.

`N#C/C(=C\c1ccc(O)c(O)c1)C(N)=S` returned an inhibition of 4%.

`CC(C)(C)n1nc(-c2cccc3ccccc23)c2c(N)ncnc21` returned an inhibition of 32%.

For the compound `C/C(O)=C(\C#N)C(=O)Nc1cc(Br)ccc1Br`, the inhibition worked out at 7%.

On to `COc1cc2c(Nc3ccc(NC(=O)c4ccccc4)cc3)ncnc2cc1OCCCN1CCOCC1`, for which the inhibition was 7%.

With `Cc1cc(C)c(/C=C2\C(=O)Nc3ccccc32)[nH]1`, the inhibition turned out to be 0%.

`N#CC(=C(\N)Sc1ccccc1N)/C(C#N)=C(/N)Sc1ccccc1N` gave an inhibition of 0%.

Take `CC[C@@H](CO)Nc1nc(NCc2ccccc2)c2ncn(C(C)C)c2n1`: the inhibition was 0%.

`Nc1ncnc2[nH]nc(Nc3ccc(F)cc3)c12` returned an inhibition of 9%.

Compound `CC1=C(O)C(=O)[C@@H]2OC2C1=O` (some centres not stated) showed an inhibition of 0%.
